According to patent publication US20240033283A1, “FUNCTIONALIZED AND CROSSLINKED POLYMERS” (PMIDG, LLC, priority 2020, published 2024):
Counter-ions that a name gives are not always drawn.

Test: Lidocaine release from gels (dialysis tubing)
Type: physicochemical
Settings: PBS, 37° C.
Method: HA and HA-DVS-MBA (83.3% substitution) gels were prepared in a similar manner as described in Example 18 using 0.75% BDDE and a pH of 13.1. About 2 g of each gel were added to a vial and 105 uL of a 6% (w/w) lidocaine HCl in PBS solution was added to each sample. After mixing, the samples were autoclaved for 5 minutes at 121° C. Approx. 1.5 g of each gel was transferred to dialysis tubing (Aldon Corporation, IS13027, 6.4 mm×10 mm, cut-off: 12-14 kDa). […] The loaded dialysis tubing was placed in separate 45 ml PBS solutions and incubated at 37° C. under oscillating conditions. […] The lidocaine content was measured using HPLC. The percent release was determined by released amount divided by the initial amount added. The release of the lidocaine from the HA and HA-MBA gels was similar.

CCN(CC)CC(=O)Nc1c(C)cccc1C [Lidocaine only, lidocaine HCl]
Cumulative Release (%) (Time 0.5 hr): 82% | Cumulative Release (%) (Time 1 hr): 87% | Cumulative Release (%) (Time 1.5 hr): 86% | Cumulative Release (%) (Time 2 hr): 84% | Cumulative Release (%) (Time 3.5 hr): 82%
